# Measurements published in US6958141B2, “Rhenium and technetium complexes containing a hypoxia-localizing moiety” (Bracco International B.V., priority 1991, dated 2005).
# Experiments:
# [1] = Determination of reduction potential by cyclic voltammetry; assay type: physicochemical; conditions: for Epc(V): cyclic voltammetry in dimethylformamide at Hg, vs. Ag/AgNO3; for Reduction process: cyclic voltammetry in dimethylformamide
# Description: The reduction potentials of misonidazole, ^99TcO(PnAO), and ^99Tc-hypoxia-localizing tracers were determined by cyclic voltammetry (C.V.) in dimethylformamide. […] The reference electrode was Ag/AgNO3 with an acetonitrile filling solution saturated with LiCl. The counter electrode was a platinum wire. Voltamograms at mercury were determined at scan rates of 50, 100, 200, and 500 mV/s.
# The solutions used in C.V. studies contained test sample at a concentration of 0.2-0.7 mM and tetrabutylammonium tetrafluoroborate (Bu4NBF4) or tetrabutylammonium hexafluorophosphate (Bu4NPF6) supporting electrolyte at a concentration of 0.1M. The solution was deoxygenated by bubbling solvent-saturated nitrogen or argon through the solution for 15 minutes. Variations in the reference potential were accounted for by determining the C.V. of a Ru(acac)3 standard on a daily basis.
# [2] = molecular target: T1, xanthine oxidase (Bos taurus, UniProt P80457); assay: Reduction of the Tc nitroimidazole complexes by xanthine oxidase; assay type: biochemical; conditions: xanthine oxidase 1.25 units, hypoxanthine, pH 7.4, anaerobic (argon), up to 7 hours
# T1 construct: purchased Boeringer (sic; Boehringer)
# Excerpt: The enzyme xanthine oxidase (in the presence of xanthine or hypoxanthine) is known to reduce the nitro group of such nitroimidazole-containing compounds as misonidazole and metronidazole (see for example P. D. Josephy, B. Palcic and L. D. Skarsgard,. “Reduction of Misonidazole and its Derivatives by Xanthine Oxidase”, Biochem. Pharmacol., 1981, 30, 849), and it has been postulated that such nitro reduction under anaerobic conditions is responsible for the selective trapping of these compounds in hypoxic tissue. Thus, a technetium or rhenium containing nitroimidazole complex should be capable of being reduced by xanthine oxidase under anaerobic conditions in the presence of hypoxanthine.
# To a 2.5 mL quartz cuvette was added 0.25 micromoles of the ^99Tc-nitroimidazole complex of Example 6 or 6b in 125 μL of dimethylformamide, 1 mL of 0.01M hypoxanthine in pH 7.4 sodium phosphate buffer (0.1M), and 0.875 mL of 0.1M sodium phosphate buffer (pH 7.4) that contained 20 mg/L of disodium ethylenediamine tetraacetic acid (EDTA). The cuvette was sealed with a rubber septum, and purged with argon for 15 minutes to remove oxygen. To this was added 1.25 units of the enzyme xanthine oxidase (Boeringer) in 0.5 mL of deoxygenated pH 7.4 phosphate buffer. The cuvette was inverted to mix, and the UV/visible spectrum of the solution was recorded from 280 to 600 nm at 15 minute intervals.
# It is believed that the disappearance of this nitro absorbance is due to reduction of the nitro group by xanthine oxidase.
# In a parallel control reaction, the reagents above were mixed in the same fashion, but the ^99Tc complex of 3,3,9,9-tetramethyl-4,8-diazaundecane-2,10-dione dioxime (prepared by the method of Jurisson et al., Inorg. Chem., 1986, 25, 543) was substituted for the technetium complexes of Examples 6 or 6b.
# [3] = system: hypoxic ischemic border zone; assay: Rabbit focal myocardial ischemia model (LAD occlusion), double-label autoradiography; assay type: in vivo; conditions: permanent LAD coronary artery ligation, intravenous tracer, heart sections
# Description: A model of focal myocardial ischemia in the rabbit was developed, using permanent ligation of the left anterior descending (LAD) coronary artery. The model consisted of two studies. In the first, relative regional myocardial blood flow (MBF) and relative regional myocardial rate of glucose metabolism (MMRgl) were determined by autoradiography using a double-label study with the flow tracer ^99mTcCl(CDO)3MeB (R. K. Narra et al., J. Nucl. Med., 1989; 30:1830-1837) and ^14C-deoxy-glucose for MMRgl (L. Sokoloff et al., J. Neurochem., 1977, 28, 897-916). ^14C-deoxyglucose and the ^99mTc-hypoxia-localizing tracer were administered to a second group of rabbits with LAD coronary artery occlusion.
# After the surgical preparation and 20 minutes of LAD occlusion, ^14C-deoxyglucose (130-150 μCi) was injected as an intravenous bolus, and timed arterial blood samples were obtained. Twenty-five minutes later, ^99mTcCl(CDO)3MeB (10-12 mCi) was administered intravenously. Five minutes later, the rabbits were sacrificed by intravenous injection of Nembutal and potassium chloride. The heart was excised, frozen in liquid Freon-22, and 20 μm coronal sections obtained with a Microtome. Autoradiographs were obtained on all sections. For the first exposure (˜14 hours duration) of Kodak XAR film, extra heavy duty aluminum foil was interposed between the tissue and film to block completely the radiation emanating from ^14C to obtain the MBF information derived from ^99mTcCl(CDO)3MeB alone. After three days (to allow for decay of ^99mTc); a second autoradiograph was obtained without foil. The second exposure lasted 6-8 days, and,provided an image of the regional distribution of ^14C-deoxyglucose.
# In a separate experiment using the rabbit LAD occlusion model and the double-label autoradiography procedures described above, the performance of the ^99mTc complex of the ligand described in Example 1 was compared to that of ^14C-misonidazole.
# [4] = system: hypoxic border zone; assay: Rat focal cerebral ischemia model (MCA occlusion), double-label autoradiography; assay type: in vivo, spontaneously hypertensive rats (SHR); conditions: SHR, injected 1 hour or five days after MCA occlusion, both time points
# Description: A model of focal cerebral ischemia involving tandem occlusion of the internal carotid artery and the ipsilateral middle cerebral artery (MCA) in spontaneously hypertensive rats (SHR) was characterized using the double-label autoradiography procedure described in Example 10. […] Following surgery, which was performed under Halothane anesthesia, the rats were allowed to recover and one hour after the MCA occlusion, ^14C-deoxyglucose was injected as an IV bolus and timed arterial samples were obtained. Twenty-five minutes after ^14C-deoxyglucose injection, ^99mTcCl(DMG)32MP was injected as an IV bolus and the rat was sacrificed 15 seconds later. The brain was rapidly removed and sections and autoradiograms were obtained as described in Example 10. As found in Example 10 for the rabbit LAD occlusion model, the ischemic territory was bordered by a rim of tissue in which glycolysis was elevated. […] Nevertheless, it was clear that the ischemic region is surrounded by a border zone of increased glycolysis. In a second series of experiments, the ^99mTc complex of the ligand described in Example 1 and ^14C-deoxyglucose were co-injected 1 hour or five days after MCA occlusion.
# T1 sequence (P80457 whole entry): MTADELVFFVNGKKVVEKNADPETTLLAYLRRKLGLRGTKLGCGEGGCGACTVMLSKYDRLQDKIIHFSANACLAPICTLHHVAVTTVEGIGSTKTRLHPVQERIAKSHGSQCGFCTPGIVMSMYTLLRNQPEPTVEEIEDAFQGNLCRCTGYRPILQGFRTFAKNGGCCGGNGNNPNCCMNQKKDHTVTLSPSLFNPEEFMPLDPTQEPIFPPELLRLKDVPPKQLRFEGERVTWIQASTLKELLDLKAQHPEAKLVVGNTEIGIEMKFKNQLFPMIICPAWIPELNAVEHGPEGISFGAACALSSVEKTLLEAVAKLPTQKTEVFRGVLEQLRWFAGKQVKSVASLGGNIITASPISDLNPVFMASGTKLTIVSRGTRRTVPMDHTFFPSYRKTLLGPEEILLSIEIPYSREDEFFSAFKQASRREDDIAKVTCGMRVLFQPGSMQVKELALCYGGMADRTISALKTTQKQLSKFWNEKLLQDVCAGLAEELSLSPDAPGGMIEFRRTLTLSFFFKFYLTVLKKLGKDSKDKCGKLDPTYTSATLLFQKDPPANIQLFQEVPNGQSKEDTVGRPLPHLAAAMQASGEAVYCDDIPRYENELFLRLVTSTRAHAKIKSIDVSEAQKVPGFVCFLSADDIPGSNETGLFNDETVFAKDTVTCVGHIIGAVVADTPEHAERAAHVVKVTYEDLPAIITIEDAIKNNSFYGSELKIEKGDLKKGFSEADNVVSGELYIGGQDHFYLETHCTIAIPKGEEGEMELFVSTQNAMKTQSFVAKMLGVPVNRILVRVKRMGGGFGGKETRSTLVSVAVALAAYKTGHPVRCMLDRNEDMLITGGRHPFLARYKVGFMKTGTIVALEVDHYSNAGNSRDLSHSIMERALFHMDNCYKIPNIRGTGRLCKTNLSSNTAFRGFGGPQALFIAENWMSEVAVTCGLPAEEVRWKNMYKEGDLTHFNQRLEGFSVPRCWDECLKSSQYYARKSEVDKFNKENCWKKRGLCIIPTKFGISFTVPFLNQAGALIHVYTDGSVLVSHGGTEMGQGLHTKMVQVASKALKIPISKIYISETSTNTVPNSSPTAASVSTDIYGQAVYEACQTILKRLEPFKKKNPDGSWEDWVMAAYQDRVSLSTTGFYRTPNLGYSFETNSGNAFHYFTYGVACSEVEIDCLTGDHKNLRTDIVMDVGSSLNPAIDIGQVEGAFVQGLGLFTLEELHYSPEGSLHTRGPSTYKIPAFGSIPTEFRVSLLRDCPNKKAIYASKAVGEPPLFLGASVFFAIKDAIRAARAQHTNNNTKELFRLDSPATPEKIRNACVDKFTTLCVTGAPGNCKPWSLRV
Compound,Epc(V) ([1]; first or only reduction listed),Reduction process ([1]; first or only reduction listed),"absorbance peak at approximately 320 nm (nitroimidazole functionality), UV/visible spectral change [2]",regional myocardial distribution pattern (autoradiography) [3],uptake in brain autoradiograms [4],Epc(V) ([1]; second reduction listed),Reduction process ([1]; second reduction listed)
"CC1=[N+]([O-])[99Tc-]23(=[O])[N](CCC[N]2C(C)(C)C(C)=[N+]3O)C1(C)C [^99TcO(PnAO), Tc(V) Oxo 3,3,9,9-tetramethyl-4-8-diazaundecane-2,10-dione-dioxime, reference compound]",−2.15,irreversible,no spectral changes were observed over a period of 7 hours,,,,
^14C-deoxyglucose [reference compound],,,,high uptake in the ischemic border zone,increased uptake in the hypoxic border zone relative to surrounding normoxic tissue,,
"CC1=[N+](O)[99Tc-]23(=[O])[N](CCC[N]2C1(C)C)C(C)(C)C(Cn1ccnc1[N+](=O)[O-])=[N+]3[O-] [Example 6, [^99Tc]Oxo[[3,3,9,9-tetramethyl-1-(2-nitro-1H-imidazo-1-yl)-4,8-diazaundecane-2,10-dione dioximato]-(3-)-N,N′,N″,N′″]technetium(V)]",−1.49,reversible,decreased in intensity,,,−1.99,irreversible
"CC1=[N+](O)[99Tc-]23(=[O])[N](CC(O)C[N]2C1(C)C)C(C)(C)C(Cn1ccnc1[N+](=O)[O-])=[N+]3[O-] (stereo not drawn) [Example 6b, [^99Tc]Oxo[[6-hydroxy-3,3,9,9-tetramethyl-(2-nitro-1H-imidazo-1-yl)-4,8-diazaundecane-2,10-dione dioximato]-(3-)-N,N′,N″,N′″]technetium (V)]",−1.48,reversible,decreased in intensity,,,−1.96,irreversible
